# Results taken from US20240366540A1, “MITOFUSIN INHIBITORS AND USES THEREOF” (Albert Einstein College of Medicine, priority 2021, published 2024).
# Legend:
# [1] = tested on: MEFs; test: Caspase-3/7 activation assay; type: cell-based, mouse
# Protocol: (§1) Caspase-3/7 activation assay. Cells (5×10^3 cells/well) were seeded in a 96-well white plate and treated with MASM7, MFI8. Caspase 3/7 activation was measured after 6 hr by addition of the Caspase-Glo 3/7 reagent according to the manufacturer's protocol (Promega). Luminescence was detected by a F200 PRO microplate reader (TECAN). Caspase assays were performed in at least triplicate and the data normalized to vehicle-treated control wells. Dilutions of MASM7 or MFI8 were performed using a TECAN D300e Digital Dispenser from 10 mM stocks.
# [2] = tested on: cells; test: Cell death assay (Annexin V / propidium iodide); type: cell-based; settings: for sensitization to BV6-induced cell death: in combination with BV6
# Protocol: (§2) Cell death assay. Cells (2×10^5 cells/well) were seeded in a 6-well plate and treated with the indicated drugs for 6 hours. Cells were dissociated using Accutase (Thermo Fisher; Cat. #00-4555-56) in order to avoid accidental exposure of phosphatidylserine on the outer plasma membrane. Cell death was evaluated with Dead Cell Apoptosis Kit with Annexin V Alexa Fluor™ 488 & Propidium Iodide (Thermo Fisher; Cat. #V13241) according to manufacturer's protocol. Data was acquired by BD LSRII flow cytometer system using BD FACSDiva software. Data was analyzed by FlowJo (BD).
# [3] = tested on: MEFs; test: Mitochondrial respiration in cellulo (OCR, Seahorse XF24); type: cell-based, mouse; settings: WT MEFs; MASM7 1 μM or MFI8 20 μM, 6 hrs
# Protocol: Mitochondrial respiration in cellulo. Mitochondrial oxygen consumption rates (OCR) were assessed using a XF24 Analyzer (Seahorse Biosciences, Billerica MA, USA). In brief, 3×10^4 MEFs were cultured in a XF24 cell culture microplate containing DMEM supplemented with 10% fetal bovine serum. […] OCR was normalized to cell number or total protein content per well for each condition tested.
# [4] = tested on: U2OS cells; test: Cell death with BV6 in U2OS cells; type: cell-based
# Protocol: as §2
# [5] = tested on: U2OS cells; test: Caspase-3/7 activation assay in U2OS cells; type: cell-based
# Protocol: as §1
# [6] = tested on: THP-1 cells; test: Cell death with BV6 in THP-1 cells; type: cell-based
# Protocol: as §2
# [7] = tested on: U2OS cells; test: Mitochondrial fusion in U2OS cells
# [8] = tested on: MFN1 and MFN2; test: MFN1 and MFN2 gene expression and protein levels; type: cell-based
# Protocol: Western blot. Western blots were performed from whole cell lysates (WCL) prepared in lysis buffer containing 50 mM Tris-HCl pH 7.5, 1% Triton X-100, 150 mM NaCl, 5 mM MgCl2, 1 mM EGTA and 10% glycerol in the presence of protease inhibitor cocktail (Roche).
# Analysis of mitochondrial biogenesis-related genes by q-PCR. Total RNA was extracted by using RNeasy Mini Kit (Qiagen) followed by cDNA synthesis using the SuperScript IV VILO Master Mix (Thermo Scientific), both performed according to the manufacturer's protocol. q-PCR was performed using the following primers: […]
# For the q-PCR reaction, Power SYBR Green master mix (Thermo Scientific) was used according to the manufacturer's instructions. Briefly, each reaction consisted of 10 ng cDNA, 5 μL Power SYBR Green master mix, 200 nM primers (forward and reverse), and RNase-free water up to 10 μL. q-PCR was performed on the ViiA 7 Real-Time PCR System (Thermo Scientific) with the following cycle parameter: 95° C. for 10 min, 40 cycles of 95° C. for 15 s, and 60° C. for 1 min. q-PCR products were analyzed by melting curves for unspecific products or primer dimer formation. Rpl39 was used as housekeeping gene and 2^−ΔΔCT method was applied to determine the relative mRNAs expression.
# [9] = tested on: MEFs; test: Mitochondrial depolarization assay (TMRE membrane potential); type: cell-based, mouse
# Protocol: Mitochondrial depolarization assay (mtΔΨ). MEFs (10^4 cells/well) were seeded in a 96-well black plate and treated with MASM7 or MFI8 for 6 hrs. Following treatments, cells were stained with 250 nM TMRE (Sigma; Cat. 87917) for 20 min at 37° C. Subsequently, cells were washed with thrice with PBS. Fluorescence intensity was detected by a M100 microplate reader (TECAN, Ex: 540 nm/Em: 579 nm).
# [10] = tested on: MEFs; test: Cytochrome C release; type: cell-based, mouse; settings: 6 hrs treatment, cytosolic and mitochondrial fractions
# Protocol: Cytochrome C release. MEFs were seeded in a 10 cm^2 dish and grown at ˜70% confluence. Following 6 hrs treatment with MFI8, cells were harvested and lysed in digitonin buffer [20 mM Hepes, pH 7.2, 10 mM KCl, 5 mM MgCl2, Im MEDTA, 1 mM EGTA, 250 mM sucrose, 0.025% Digitonin (from 5% w/v stock) and complete protease inhibitors (Roche Applied Science)] on ice for 10 min. Then, supernatants were isolated by centrifugation at 15,000×g for 10 min. Mitochondrial pellets solubilized in 1% Triton X-100/PBS for 1 hr at 4° C. Solubilized Pellets were subjected to a 14,000×rpm spin for 10 min. Samples were prepared for western blot analysis and separated by 4-12% NuPage (Life Technologies).
# [11] = tested on: U2OS cells; test: DNA damage, yH2AX immunofluorescence in U2OS; type: cell-based
# Protocol: Immunofluorescent analysis and microscopy. Cells were treated with MASM7, MFI8 and or Q-VD-OPh at ˜70% confluence for 6 h. After treatments, cells were washed with PBS and fixed with 4% PFA for 15 min. Then cells were permeabilized with 0.1% Triton X-100 in PBS for 10 min. Cells were blocked with 5% BSA in PBS-T and incubated overnight with primary antibodies as indicated; yH2AX (Sigma; 05-636, 1:100 dilution). After incubation with primary antibodies, cells were washed with PBS and incubated with the appropriate mouse secondary antibody (ThermoFisher Scientific; A-11001) in the blocking solution. After PBS washes, coverslips were dipped in water and mounted on glass slides using Vectashield containing DAPI (Vector laboratories). […] Data were analyzed with ImageJ.
smiles,measurement,setting,value
"Cc1cccc(NC(C)c2cc(Cl)ccc2O)c1C (stereo not drawn) [MFI8, 4-Chloro-2-(1-((2,3-dimethylphenyl)amino)ethyl)phenol]",caspase-3/7 activity,"[1]; 6 hr, Caspase-Glo 3/7",concentration-responsively increased caspase-3/7 activity
same,caspase 3/7 activity,[1]; deletion of APAF-1,detrimental for the capacity of MFI8 to increase caspase 3/7 activity
same,caspase-3/7 activity,[1]; deletion of MFN1/MFN2,impaired the capacity of MFI8 to increase caspase-3/7 activity
same,percentage of dead cells,"[2]; compound alone, upon caspase 3/7 activation",did not increase the percentage of dead cells
same,sensitization to BV6-induced cell death,[2],potentiated the capacity of BV6 to induce cell death
same,sensitization to BV6-induced cell death,[2]; deletion of MFN1/2 and APAF,abolished the capacity of MFI8 to sensitize cells to BV6 treatment
same,respiration and mitochondrial ATP production (OCR),[3],reduced respiration and mitochondrial ATP production
same,cell death in combination with BV6,[4],synergistically induce cell death
same,caspase-3/7 activation,[5],induced caspase-3/7 activation
same,cell death in combination with BV6,[6],synergistically induce cell death
same,mitochondrial fusion,[7],inhibited mitochondrial fusion
same,MFN1 and MFN2 gene expression and corresponding protein levels,[8],neither MASM7 nor MFI8 altered
same,mitochondrial membrane potential (TMRE),[9]; MFN1/MFN2 DKO MEFs reconstituted with L692A MFN2,not when reconstituted with L692A MFN2
same,mitochondrial membrane potential (TMRE),[9]; MFN1/MFN2 DKO MEFs reconstituted with WT MFN2,significantly decreased mitochondrial membrane potential
same,mitochondrial membrane potential (TMRE),"[9]; WT MEFs, 6 hrs",concentration responsively decreased mitochondrial membrane potential
same,cytochrome c release to the cytosol,[10],"cytochrome c was released to the cytosol, albeit at modest levels"
same,DNA damage (yH2AX),[11]; U2OS cells,induced DNA damage in U2OS cells
same,DNA damage (yH2AX),"[11]; U2OS, co-treatment with pan-caspase inhibitor Q-VD-OPh",abolished the capacity of the latter to induce DNA damage
